Format in all cases: cell-based
The target of assay [1] is T1, human μ-opioid receptor, OPRM (Homo sapiens, UniProt P35372).
T1 construct: host or cells: HEK-293 overexpressing β-arrestin2 fused to a β-galactosidase fragment
Put plainly: PathHunter β-arrestin 2 assay, OPRM cell line. The settings on record: for OPRM β-ARR2 Emax (%): Example 3, Tables 5-7; for β-arrestin pathway activation / bARR2 recruitment, in words: OPRM. The text has this: (§1) Human embryonic kidney 293 (HEK-293) cells which transfected overexpress (3-arrestin2 fused β-galactosidase fragment were purchased from DiscoverX. Human OPRM1 gene (NM 000914.3, encoding human μ-opioid receptor, OPRM) and Human OPRD1 gene (NM 000911.3, encoding human δ-opioid receptor, OPRD) were fused to a pCMV-ProLink plasmid which contains complementary β-galactosidase fragment purchased from DiscoverX. To generate human OPRM1 or OPRD1 expression cell lines, HEK-293 cells were transfected to prepared plasmid and grown in DMEM medium with 10% fetal bovine serum, 150 μg/mL Hygromycin B and 500 μg/mL G418.
(§2) The PathHunter enzyme assay was performed to measure the agonist's capability of β-arrestin 2 pathway activation. When agonists bind to G protein-coupled receptor (GPCR), the receptor pathway is sequentially activated from G protein to β-arrestin 2 recruitment.
(§3) Because […] β-arrestin 2 and C-terminal of GPCR have a fragment of β-galactosidase, recruitment of β-arrestin 2 to GPCR forms the whole β-galactosidase. The functionality of the whole β-galactosidase is detected by chemiluminescence (FlexStation3, Molecular Devices).
(§4) cAMP and β-arrestin assays described above were conducted to decide whether candidate compounds were μ- and/or δ-opioid receptor bias agonists for the G-protein pathway. All assays produced the concentration-response curve, and the curve data was validated by a quality control factor named Z′ factor. Because half-maximal effect concentration (EC50) depends on the population of receptors, the maximal asymptote of the concentration curve was used. Efficacy data of candidates was normalized by comparison to reference agonists DAMGO and SNC80 for OPRM and OPRD.

Assay [2] deals with T1, human μ-opioid receptor, OPRM. Put plainly: Dominant assay: cAMP assay with/without irreversible antagonist β-FNA, OPRM cell line. The settings on record: for maximal response on decreasing receptor population (dominant tendency), in words: OPRM cell lines, β-FNA. The text has this:
(§5) To confirm the agonist's efficacy in a nature-like system, we need inactivation of target receptors on the cell membrane. Most cell lines have an abundant target receptor population (also known as spare receptors). Therefore, agonists have more opportunity to constitute agonist-receptor conformation. In this environment, not only full agonists but also partial agonists can reach maximal response.
(§6) If the partial agonist is selected as a full agonist, translational in vivo research will likely fail.
(§7) Non-competitive, irreversible antagonists can be applicable to judge the pharmacological character of agonists because they permanently decrease the receptor population in the cell line system. β-FNA or β-CNA is used as a non-competitive and irreversible antagonist for OPRM, OPRD. Before cAMP assay, cells were incubated with β-FNA or β-CNA for 40 minutes. Afterwards, the procedure is the same.
(§8) If a partial agonist compound acts as a full agonist due to receptor population (pseudo full agonist), it cannot sustain maximal response with reduced receptor population. However, a full agonist compound maintains their maximal response even though increased EC50.
On the technique in general: Changes in cAMP serve as a functional read-out for many G protein-coupled receptors.

Assay [3] has as its target T2, human δ-opioid receptor, OPRD (Homo sapiens, UniProt P41143).
T2 construct: host or cells: HEK-293 overexpressing β-arrestin2 fused to a β-galactosidase fragment
The assay can be described thus: PathHunter β-arrestin 2 assay, OPRD cell line. The settings on record: for β-arrestin pathway activation / bARR2 recruitment, in words: OPRD.
Text: as §1, §2, §3, §4

For assay [4], the target named is T2, human δ-opioid receptor, OPRD. Put plainly: Dominant assay: cAMP assay with/without irreversible antagonist β-CNA, OPRD cell line. The following applies: for maximal response on decreasing receptor population (dominant tendency), in words: OPRD cell lines, β-CNA.
Text: as §5, §6, §7, §8

Where [5] appears, read: addition of β-FNA, Example 3, Tables 5-7, read-out: OPRM Gi β-FNA (+) EC50.
[6] abbreviates: addition of β-FNA, Example 3, Tables 5-7, read-out: OPRM Gi β-FNA (+) Emax (%).
The mark [7] stands for this setting: addition of β-FNA, repeated dominant assay, Example 4, Tables 8-10, read-out: OPRM Gi β-FNA (+) EC50.
Setting [8] is: addition of β-FNA, repeated dominant assay, Example 4, Tables 8-10, read-out: OPRM Gi β-FNA (+) Emax (%).
Setting [9] is: no addition of β-FNA, Example 3, Tables 5-7, read-out: OPRM Gi β-FNA (−) EC50.
Where [10] appears, read: no addition of β-FNA, Example 3, Tables 5-7, read-out: OPRM Gi β-FNA (−) Emax (%).
Setting [11] is: no addition of β-FNA, repeated dominant assay, Example 4, Tables 8-10, read-out: OPRM Gi β-FNA (−) EC50.
Where [12] appears, read: no addition of β-FNA, repeated dominant assay, Example 4, Tables 8-10, read-out: OPRM Gi β-FNA (−) Emax (%).
[13] abbreviates: addition of β-CNA, Example 3, Tables 5-7, read-out: OPRD Gi β-CNA (+) EC50.
Where [14] appears, read: addition of β-CNA, Example 3, Tables 5-7, read-out: OPRD Gi β-CNA (+) Emax (%).
The mark [15] stands for this setting: addition of β-CNA, repeated dominant assay, Example 4, Tables 8-10, read-out: OPRD Gi β-CNA (+) EC50.
[16] abbreviates: addition of β-CNA, repeated dominant assay, Example 4, Tables 8-10, read-out: OPRD Gi β-CNA (+) Emax (%).
The mark [17] stands for this setting: no addition of β-CNA, Example 3, Tables 5-7.
Where [18] appears, read: no addition of β-CNA, Example 3, Tables 5-7, read-out: OPRD Gi β-CNA (−) EC50.
The mark [19] stands for this setting: no addition of β-CNA, repeated dominant assay, Example 4, Tables 8-10, read-out: OPRD Gi β-CNA (−) EC50.
Where [20] appears, read: no addition of β-CNA, repeated dominant assay, Example 4, Tables 8-10, read-out: OPRD Gi β-CNA (−) Emax (%).
The mark [21] stands for this setting: addition of β-FNA, repeated dominant assay, Example 4, Tables 8-10.
Where [22] appears, read: addition of β-CNA, Example 3, Tables 5-7.
Where [23] appears, read: addition of β-CNA, repeated dominant assay, Example 4, Tables 8-10.
The mark [24] stands for this setting: no addition of β-CNA, repeated dominant assay, Example 4, Tables 8-10.

“Also recorded” adds a separate entry of the source. Read-outs that look alike come from different tables or passages of the source.

T2 sequence (P41143 whole entry, the tested form may be a part): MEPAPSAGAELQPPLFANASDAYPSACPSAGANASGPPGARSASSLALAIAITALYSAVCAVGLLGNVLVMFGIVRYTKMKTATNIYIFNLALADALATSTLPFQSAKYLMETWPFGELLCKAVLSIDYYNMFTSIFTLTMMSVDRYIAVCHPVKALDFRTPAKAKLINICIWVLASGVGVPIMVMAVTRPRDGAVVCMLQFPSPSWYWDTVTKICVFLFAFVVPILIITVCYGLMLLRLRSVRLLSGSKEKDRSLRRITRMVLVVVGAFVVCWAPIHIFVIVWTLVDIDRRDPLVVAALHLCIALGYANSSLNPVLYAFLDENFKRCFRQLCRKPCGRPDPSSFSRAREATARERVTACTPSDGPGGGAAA
T1 sequence (P35372 whole entry, the tested form may be a part): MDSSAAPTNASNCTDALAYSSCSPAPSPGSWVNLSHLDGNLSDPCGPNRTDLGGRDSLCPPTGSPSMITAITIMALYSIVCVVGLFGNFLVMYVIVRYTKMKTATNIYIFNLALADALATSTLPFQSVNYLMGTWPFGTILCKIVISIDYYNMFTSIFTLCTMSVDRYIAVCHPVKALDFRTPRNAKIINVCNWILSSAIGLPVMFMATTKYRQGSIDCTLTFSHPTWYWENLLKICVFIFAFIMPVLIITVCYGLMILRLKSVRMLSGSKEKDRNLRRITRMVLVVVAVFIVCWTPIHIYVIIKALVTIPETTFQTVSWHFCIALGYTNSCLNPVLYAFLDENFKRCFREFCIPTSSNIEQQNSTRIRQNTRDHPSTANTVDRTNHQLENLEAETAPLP

For `CN1CCc2cc(C(CNC(=O)Nc3ccc(F)cc3)N(C)C)ccc21` (single isomer, unassigned) [Compound 6], in assay [1], the “OPRM β-ARR2 Emax (%)” value was 8.5%. In addition, the “β-arrestin pathway activation / bARR2 recruitment, in words” value in assay [1] and in assay [3] was “lower bARR2 recruitment as compared to morphine” throughout. Besides, the “maximal response on decreasing receptor population (dominant tendency), in words” value in assay [2] and in assay [4] was “resistant to decreasing spare receptors; also recorded: showed efficacy dominance on both types of opioid receptors; also recorded: resistant to decreasing spare receptor-induced tendency; also recorded: maintained a higher maximal response as compared to compound 2” in each case. In addition, the EC50 (as a rule, the midpoint of the concentration-response curve) was determined as 2.48 µM in assay [2] (setting [5]); 8.49 µM in assay [2] (setting [7]); 0.519 µM in assay [2] (setting [9]); 1.86 µM in assay [2] (setting [11]); 48.3 µM in assay [4] (setting [13]); 13.5 µM in assay [4] (setting [15]). For the same compound, the EC50 was found to be 8.91 µM in assay [4] (setting [18]) and 4.32 µM in assay [4] (setting [19]). Further, the Emax – broadly, the maximal effect, on the per cent scale that the assay sets – in assay [2] (setting [6]) came out at 77%; in assay [2] (setting [8]), 90.1%; in assay [2] (setting [10]), 106%; in assay [2] (setting [12]), 100%; in assay [3] (Example 3, Tables 5-7, read-out: OPRD β-ARR2 Emax (%)) it was 10.5%; in assay [4] (setting [14]) it was 119%. For the same compound, the Emax turned out to be 81.4% in assay [4] (setting [16]) and 102% in assay [4] (setting [20]). Moreover, in assay [4] (setting [17]), the “OPRD Gi β-CNA (−) Emax (%)” value is on record as 128.1%.

For the compound `CN(C)C(CNC(=O)Cc1ccc2c(c1)OCCO2)c1ccccc1` (single isomer, unassigned) [Compound 4], in assay [1], the “OPRM β-ARR2 Emax (%)” value amounted to 4.8%. Also, the “β-arrestin pathway activation / bARR2 recruitment, in words” value in assay [1] and in assay [3] was “lower bARR2 recruitment as compared to morphine” in each case. In assay [2], the “maximal response on decreasing receptor population (dominant tendency), in words” value is on record as “better efficacy than racemic compound 1”. Further, the concentration giving a half-maximal response (EC50) in assay [2] (setting [5]) is 10.9 µM; in assay [2] (setting [7]), 12 µM; in assay [2] (setting [9]), 20 µM; in assay [2] (setting [11]), 9.4 µM; in assay [4] (setting [15]) it was 10 µM; in assay [4] (setting [19]) it was 8.65 µM. In addition, the Emax in assay [2] (setting [6]) came out at 24.6%; in assay [2] (setting [10]) it was 82.8%; in assay [2] (setting [12]), 100%; in assay [4] (setting [20]), 100%. Moreover, the “OPRM Gi β-FNA (+) Emax (%)” value in assay [2] (setting [21]) is 45.02%. Also, in assay [3] (Example 3, Tables 5-7), the “OPRD β-ARR2 Emax (%)” value was 2.8%. Moreover, the “OPRD Gi β-CNA (+) Emax (%)” value in assay [4] (setting [22]) is reported as 17.23%; in assay [4] (setting [23]) it was 108.1%. The “OPRD Gi β-CNA (−) Emax (%)” value in assay [4] (setting [17]) was 20.59%.

Turning to `Cc1ccccc1NC(=O)NCC(c1ccc2c(c1)CCO2)N(C)C` (single isomer, unassigned) [Compound 9], in assay [1], the “OPRM β-ARR2 Emax (%)” value was found to be 22.9%. Further, the “OPRM Gi β-FNA (+) Emax (%)” value in assay [2] (addition of β-FNA, Example 3, Tables 5-7) is given as 52.64%; in assay [2] (setting [21]), 74.49%. For the same compound, the EC50 in assay [2] (setting [5]) amounted to 1.66 µM; in assay [2] (setting [7]) it was 0.791 µM; in assay [2] (setting [9]), 0.0733 µM; in assay [2] (setting [11]), 0.0713 µM; in assay [4] (setting [13]), 5.86 µM; in assay [4] (setting [15]), 5.86 µM. Also, the EC50 was found to be 2.79 µM in assay [4] (setting [18]) and 18.1 µM in assay [4] (setting [19]). Further, the “OPRM Gi β-FNA (−) Emax (%)” value in assay [2] (no addition of β-FNA, Example 3, Tables 5-7) is on record as 98.76%; in assay [2] (no addition of β-FNA, repeated dominant assay, Example 4, Tables 8-10) it was 91.98%. Besides, in assay [3] (Example 3, Tables 5-7), the “OPRD β-ARR2 Emax (%)” value was 16.1%. The “OPRD Gi β-CNA (+) Emax (%)” value in assay [4] (setting [22]) and in assay [4] (setting [23]) was 51.61% throughout. Moreover, the figures for the “OPRD Gi β-CNA (−) Emax (%)” value in assay [4] (setting [17]) and in assay [4] (setting [24]) were 66.82% and 139%, respectively.

Turning to `C[C@@H](NC(=O)[C@@H](N)Cc1ccc(O)cc1)C(=O)NCC(=O)N(C)[C@@H](Cc1ccccc1)C(=O)NCCO` [DAMGO, [D-Ala^2, NMe-Phe^4, Gly-ol^5]-enkephalin, reference compound], the “maximal response on decreasing receptor population (dominant tendency), in words” value in assay [2] is reported as “full agonist”.

Turning to `C=CCN1C[C@H](C)N([C@H](c2ccc(C(=O)N(CC)CC)cc2)c2cccc(OC)c2)C[C@H]1C` [SNC80, reference compound], in assay [4], the “maximal response on decreasing receptor population (dominant tendency), in words” value is “full agonist”. The “completeness of concentration-response curve, in words” value in assay [4] (OPRD system) is “produced a full concentration-response curve”.

In the case of `Cc1ccccc1NC(=O)NCC(c1ccc2c(c1)CCO2)N(C)C` (single isomer, unassigned) [Compound 8], the “OPRM β-ARR2 Emax (%)” value in assay [1] was 5.4%. Besides, the “β-arrestin pathway activation / bARR2 recruitment, in words” value in assay [1] and in assay [3] was “lower bARR2 recruitment as compared to morphine” each time. For the same compound, the EC50 in assay [2] (setting [5]) amounted to 14.2 µM; in assay [2] (setting [7]), 7.78 µM; in assay [2] (setting [9]), 0.734 µM; in assay [2] (setting [11]), 0.219 µM; in assay [4] (setting [13]), 35.7 µM; in assay [4] (setting [15]), 8.69 µM. For the same compound, the EC50 in assay [4] (setting [18]) was 15 µM; in assay [4] (setting [19]), 16.9 µM. Besides, the Emax stood at 43.2% in assay [2] (setting [6]); 77.5% in assay [2] (setting [8]); 84.7% in assay [2] (setting [10]); 91.6% in assay [2] (setting [12]); 42.7% in assay [4] (setting [14]); 42.7% in assay [4] (setting [16]). Moreover, in assay [3] (Example 3, Tables 5-7), the “OPRD β-ARR2 Emax (%)” value is listed as 5.1%. The results for the “OPRD Gi β-CNA (−) Emax (%)” value in assay [4] (setting [17]) and in assay [4] (setting [24]) were 95.54% and 102.7%, respectively.
